Measurements as given in ChEMBL document CHEMBL5303761, “Data for DCP probe BI-3231” (2023).

Key:
[1] = target: Alpha-2C adrenergic receptor (Homo sapiens) (UniProt P18825); details: Compound concentration 10.0 uM
[2] = target: Histamine H1 receptor (Homo sapiens) (UniProt P35367); test: H1/PYRIL/HS Eurofins SafetyScreen44 (BI); details: Compound concentration 10.0 uM
[3] = target: 5-hydroxytryptamine receptor 1D (Homo sapiens) (UniProt P28221); details: Compound concentration 10.0 uM
[4] = target: Sodium-dependent noradrenaline transporter (Homo sapiens) (UniProt P23975); test: NEUP/H Eurofins SafetyScreen44 (BI); details: Compound concentration 10.0 uM
[5] = target: D(3) dopamine receptor (Homo sapiens) (UniProt P35462); details: Compound concentration 10.0 uM
[6] = target: 5-hydroxytryptamine receptor 1B (Homo sapiens) (UniProt P28222); test: 5HT1B(H) Eurofins SafetyScreen44 (BI); details: filed as antagonist, Compound concentration 10.0 uM
[7] = target: 5-hydroxytryptamine receptor 1B (Homo sapiens) (UniProt P28222); details: Compound concentration 10.0 uM
[8] = target: Delta-type opioid receptor (Homo sapiens) (UniProt P41143); details: Compound concentration 10.0 uM
[9] = target: Prostaglandin G/H synthase 2 (Homo sapiens) (UniProt P35354); test: COX-2 Eurofins SafetyScreen44 (BI); details: Compound concentration 10.0 uM
[10] = target: T1, Alpha-2A adrenergic receptor (Homo sapiens) (UniProt P08913); test: ALPHA2A/HU Eurofins SafetyScreen44 (BI); details: Compound concentration 10.0 uM
T1 sequence (whole entry): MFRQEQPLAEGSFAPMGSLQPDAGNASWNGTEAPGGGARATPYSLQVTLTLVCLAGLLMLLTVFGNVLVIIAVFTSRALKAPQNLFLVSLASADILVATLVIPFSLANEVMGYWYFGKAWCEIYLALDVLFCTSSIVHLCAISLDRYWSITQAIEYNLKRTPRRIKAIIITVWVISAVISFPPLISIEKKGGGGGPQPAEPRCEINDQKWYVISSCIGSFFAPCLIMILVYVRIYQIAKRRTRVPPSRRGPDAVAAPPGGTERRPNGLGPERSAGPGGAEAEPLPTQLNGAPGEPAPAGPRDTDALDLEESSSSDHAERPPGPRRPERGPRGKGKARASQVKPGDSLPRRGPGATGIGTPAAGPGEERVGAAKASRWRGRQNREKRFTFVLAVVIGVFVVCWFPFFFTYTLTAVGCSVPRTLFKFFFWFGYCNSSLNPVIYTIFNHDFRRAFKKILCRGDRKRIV

[11] = target: Alpha-2B adrenergic receptor (Homo sapiens) (UniProt P18089); details: Compound concentration 10.0 uM
[12] = target: Sodium-dependent dopamine transporter (Homo sapiens) (UniProt Q01959); test: DATRANS/HUM Eurofins SafetyScreen44 (BI); details: Compound concentration 10.0 uM
[13] = target: Sodium-dependent noradrenaline transporter (Homo sapiens) (UniProt P23975); details: Compound concentration 10.0 uM
[14] = target: T2, Alpha-1A adrenergic receptor (Homo sapiens) (UniProt P35348); test: ALPHA1AH_ANTAG Eurofins SafetyScreen44 (BI); details: filed as antagonist, Compound concentration 10.0 uM
T2 sequence (whole entry): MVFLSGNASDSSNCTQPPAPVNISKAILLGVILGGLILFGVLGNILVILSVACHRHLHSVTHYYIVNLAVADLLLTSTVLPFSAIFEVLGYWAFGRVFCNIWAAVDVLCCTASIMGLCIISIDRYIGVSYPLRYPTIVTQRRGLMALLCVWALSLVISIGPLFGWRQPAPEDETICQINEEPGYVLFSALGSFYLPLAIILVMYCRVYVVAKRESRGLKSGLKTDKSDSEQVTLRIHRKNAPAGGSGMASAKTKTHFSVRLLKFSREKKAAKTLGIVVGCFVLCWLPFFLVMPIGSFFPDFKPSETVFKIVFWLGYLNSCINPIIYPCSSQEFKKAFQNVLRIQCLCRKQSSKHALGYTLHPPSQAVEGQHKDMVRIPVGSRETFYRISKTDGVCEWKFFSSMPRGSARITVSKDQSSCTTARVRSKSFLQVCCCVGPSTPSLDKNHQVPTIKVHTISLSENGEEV

[15] = target: D(1B) dopamine receptor (Homo sapiens) (UniProt P21918); details: Compound concentration 10.0 uM
[16] = target: Beta-1 adrenergic receptor (Homo sapiens) (UniProt P08588); test: BETA1/HUM Eurofins SafetyScreen44 (BI); details: Compound concentration 10.0 uM
[17] = target: Cholecystokinin receptor type A (Homo sapiens) (UniProt P32238); test: CCKA/H Eurofins SafetyScreen44 (BI); details: Compound concentration 10.0 uM
[18] = target: GABA-A receptor; anion channel (Rattus norvegicus) (UniProt O09028+P15431+P18506+P18508+P19969+P20236+P23574+P23576+P28471+P28473+P30191+P62813+P63079+P63138+Q91ZM7+Q9ES14); test: BZD/CENTR/R Eurofins SafetyScreen44 (BI); type: protein-complex assay; details: Compound concentration 10.0 uM
[19] = target: Delta-type opioid receptor (Homo sapiens) (UniProt P41143); test: DELTA2/H Eurofins SafetyScreen44 (BI); details: Compound concentration 10.0 uM
[20] = target: Neuronal acetylcholine receptor; alpha4/beta2 (Homo sapiens) (UniProt P17787+P43681); test: N_NEURO_A4B2 Eurofins SafetyScreen44 (BI); type: protein-complex assay; details: filed as agonist, Compound concentration 10.0 uM
[21] = target: Endothelin-1 receptor (Homo sapiens) (UniProt P25101); test: ETA/H Eurofins SafetyScreen44 (BI); details: Compound concentration 10.0 uM
[22] = target: Glucocorticoid receptor (Homo sapiens) (UniProt P04150); test: GCORTICOID/H Eurofins SafetyScreen44 (BI); details: Compound concentration 10.0 uM
[23] = target: Histamine H3 receptor (Homo sapiens) (UniProt Q9Y5N1); details: Compound concentration 10.0 uM
[24] = target: Cannabinoid receptor 1 (Homo sapiens) (UniProt P21554); test: CB1(HU)_AGON Eurofins SafetyScreen44 (BI); details: filed as agonist; Compound concentration 10.0 uM
[25] = target: T3, 5-hydroxytryptamine receptor 1A (Homo sapiens) (UniProt P08908); test: 5HT1A/H Eurofins SafetyScreen44 (BI); details: Compound concentration 10.0 uM
T3 sequence (whole entry): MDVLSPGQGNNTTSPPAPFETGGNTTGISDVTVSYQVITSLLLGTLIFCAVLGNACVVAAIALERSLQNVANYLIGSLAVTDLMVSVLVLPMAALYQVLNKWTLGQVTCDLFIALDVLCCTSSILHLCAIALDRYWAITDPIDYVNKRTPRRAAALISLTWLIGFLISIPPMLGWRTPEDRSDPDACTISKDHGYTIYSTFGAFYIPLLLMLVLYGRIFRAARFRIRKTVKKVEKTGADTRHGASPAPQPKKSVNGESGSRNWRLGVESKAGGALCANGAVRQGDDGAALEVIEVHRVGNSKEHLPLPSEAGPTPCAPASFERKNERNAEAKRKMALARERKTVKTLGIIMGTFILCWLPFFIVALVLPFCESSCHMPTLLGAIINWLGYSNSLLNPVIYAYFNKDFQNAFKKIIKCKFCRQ

Chain of 5-hydroxytryptamine receptor 1D (Homo sapiens) (P28221 whole entry): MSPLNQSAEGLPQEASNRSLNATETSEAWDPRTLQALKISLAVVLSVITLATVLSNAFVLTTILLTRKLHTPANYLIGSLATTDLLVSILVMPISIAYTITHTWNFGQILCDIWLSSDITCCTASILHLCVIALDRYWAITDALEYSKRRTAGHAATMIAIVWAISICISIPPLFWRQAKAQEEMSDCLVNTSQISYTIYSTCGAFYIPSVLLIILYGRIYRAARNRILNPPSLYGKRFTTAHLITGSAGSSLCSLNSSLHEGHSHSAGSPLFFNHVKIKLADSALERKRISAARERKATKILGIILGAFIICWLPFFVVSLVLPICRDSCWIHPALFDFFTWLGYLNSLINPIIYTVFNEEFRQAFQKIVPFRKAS
Chain of D(1B) dopamine receptor (Homo sapiens) (P21918 whole entry): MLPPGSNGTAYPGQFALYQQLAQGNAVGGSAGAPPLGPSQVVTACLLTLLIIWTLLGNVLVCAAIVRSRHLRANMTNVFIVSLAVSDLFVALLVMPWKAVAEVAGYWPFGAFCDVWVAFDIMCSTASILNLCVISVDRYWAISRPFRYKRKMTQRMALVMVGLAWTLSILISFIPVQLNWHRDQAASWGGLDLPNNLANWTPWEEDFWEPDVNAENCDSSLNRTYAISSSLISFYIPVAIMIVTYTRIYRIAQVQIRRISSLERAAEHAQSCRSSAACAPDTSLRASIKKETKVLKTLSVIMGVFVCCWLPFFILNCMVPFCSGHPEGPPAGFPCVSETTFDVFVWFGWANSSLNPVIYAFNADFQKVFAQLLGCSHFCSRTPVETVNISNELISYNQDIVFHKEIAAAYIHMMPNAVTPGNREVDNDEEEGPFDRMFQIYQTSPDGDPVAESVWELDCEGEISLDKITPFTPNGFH
Chain of Alpha-2C adrenergic receptor (Homo sapiens) (P18825 whole entry): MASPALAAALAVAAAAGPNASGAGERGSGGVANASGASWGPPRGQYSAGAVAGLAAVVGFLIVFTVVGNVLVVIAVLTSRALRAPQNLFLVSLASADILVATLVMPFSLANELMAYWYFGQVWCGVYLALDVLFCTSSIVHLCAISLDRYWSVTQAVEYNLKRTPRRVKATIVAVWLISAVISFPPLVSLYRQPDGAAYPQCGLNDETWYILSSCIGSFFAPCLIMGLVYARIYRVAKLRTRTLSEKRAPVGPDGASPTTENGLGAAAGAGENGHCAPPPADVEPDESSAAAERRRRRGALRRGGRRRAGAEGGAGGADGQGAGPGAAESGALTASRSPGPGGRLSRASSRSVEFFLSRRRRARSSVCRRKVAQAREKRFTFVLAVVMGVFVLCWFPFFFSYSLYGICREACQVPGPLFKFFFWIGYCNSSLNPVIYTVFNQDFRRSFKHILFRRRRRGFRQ
Chain of Sodium-dependent noradrenaline transporter (Homo sapiens) (P23975 whole entry): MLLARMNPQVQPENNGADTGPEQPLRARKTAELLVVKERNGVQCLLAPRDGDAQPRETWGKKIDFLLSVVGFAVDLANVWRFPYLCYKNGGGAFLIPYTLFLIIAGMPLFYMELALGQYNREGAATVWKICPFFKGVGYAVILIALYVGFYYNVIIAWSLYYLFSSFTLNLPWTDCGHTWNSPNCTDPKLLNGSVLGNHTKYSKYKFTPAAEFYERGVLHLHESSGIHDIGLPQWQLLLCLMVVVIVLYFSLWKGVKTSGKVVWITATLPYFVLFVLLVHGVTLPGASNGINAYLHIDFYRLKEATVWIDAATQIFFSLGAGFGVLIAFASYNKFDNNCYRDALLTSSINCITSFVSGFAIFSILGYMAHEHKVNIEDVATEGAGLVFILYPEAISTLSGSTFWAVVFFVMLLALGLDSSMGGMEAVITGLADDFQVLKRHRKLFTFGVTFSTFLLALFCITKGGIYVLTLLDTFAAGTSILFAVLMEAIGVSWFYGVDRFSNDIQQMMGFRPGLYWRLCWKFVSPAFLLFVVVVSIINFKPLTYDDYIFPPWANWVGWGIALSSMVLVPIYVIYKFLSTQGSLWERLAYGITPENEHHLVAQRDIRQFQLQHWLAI
Chain of Delta-type opioid receptor (Homo sapiens) (P41143 whole entry): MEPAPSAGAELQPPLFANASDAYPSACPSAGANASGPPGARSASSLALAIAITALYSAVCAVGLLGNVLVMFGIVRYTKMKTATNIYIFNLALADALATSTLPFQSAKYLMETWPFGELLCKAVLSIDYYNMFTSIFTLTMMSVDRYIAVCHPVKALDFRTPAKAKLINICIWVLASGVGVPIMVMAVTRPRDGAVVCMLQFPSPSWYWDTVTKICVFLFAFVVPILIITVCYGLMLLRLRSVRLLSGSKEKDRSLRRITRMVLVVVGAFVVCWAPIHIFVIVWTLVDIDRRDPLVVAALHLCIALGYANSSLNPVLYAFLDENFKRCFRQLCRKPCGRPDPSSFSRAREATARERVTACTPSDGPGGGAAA
Chain of D(3) dopamine receptor (Homo sapiens) (P35462 whole entry): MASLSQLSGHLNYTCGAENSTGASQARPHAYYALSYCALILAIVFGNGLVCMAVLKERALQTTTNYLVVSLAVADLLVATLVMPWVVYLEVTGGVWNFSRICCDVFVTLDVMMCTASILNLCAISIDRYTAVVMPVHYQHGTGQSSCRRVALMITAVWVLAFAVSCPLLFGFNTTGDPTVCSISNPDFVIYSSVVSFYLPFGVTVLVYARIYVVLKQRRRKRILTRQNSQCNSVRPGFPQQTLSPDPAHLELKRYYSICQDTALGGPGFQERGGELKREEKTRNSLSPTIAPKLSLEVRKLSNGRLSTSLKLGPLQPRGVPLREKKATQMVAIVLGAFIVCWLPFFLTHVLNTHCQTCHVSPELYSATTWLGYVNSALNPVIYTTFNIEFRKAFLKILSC
Chain of 5-hydroxytryptamine receptor 1B (Homo sapiens) (P28222 whole entry): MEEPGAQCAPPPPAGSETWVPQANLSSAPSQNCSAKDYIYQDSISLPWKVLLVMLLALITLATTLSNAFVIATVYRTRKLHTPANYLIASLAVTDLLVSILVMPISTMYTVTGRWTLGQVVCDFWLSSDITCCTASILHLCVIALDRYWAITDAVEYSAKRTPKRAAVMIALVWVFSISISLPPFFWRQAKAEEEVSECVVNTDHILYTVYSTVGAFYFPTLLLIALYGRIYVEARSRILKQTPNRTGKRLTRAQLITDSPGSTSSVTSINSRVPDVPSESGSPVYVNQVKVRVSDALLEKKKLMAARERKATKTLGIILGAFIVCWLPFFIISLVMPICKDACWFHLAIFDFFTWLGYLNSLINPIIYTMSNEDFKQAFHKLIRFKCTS
Chain of Histamine H3 receptor (Homo sapiens) (Q9Y5N1 whole entry): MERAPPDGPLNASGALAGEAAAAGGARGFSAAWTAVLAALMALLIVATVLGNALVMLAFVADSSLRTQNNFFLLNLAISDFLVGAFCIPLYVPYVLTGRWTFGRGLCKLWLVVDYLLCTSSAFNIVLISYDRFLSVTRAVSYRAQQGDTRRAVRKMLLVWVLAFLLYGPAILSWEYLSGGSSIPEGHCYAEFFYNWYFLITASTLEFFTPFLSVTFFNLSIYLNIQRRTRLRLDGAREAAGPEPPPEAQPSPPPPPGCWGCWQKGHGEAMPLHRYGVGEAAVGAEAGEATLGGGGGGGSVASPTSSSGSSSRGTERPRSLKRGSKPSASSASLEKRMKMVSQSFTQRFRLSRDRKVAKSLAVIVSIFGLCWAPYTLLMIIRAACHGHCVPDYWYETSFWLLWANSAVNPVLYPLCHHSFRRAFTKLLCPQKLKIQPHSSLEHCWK
Chain of Alpha-2B adrenergic receptor (Homo sapiens) (P18089 whole entry): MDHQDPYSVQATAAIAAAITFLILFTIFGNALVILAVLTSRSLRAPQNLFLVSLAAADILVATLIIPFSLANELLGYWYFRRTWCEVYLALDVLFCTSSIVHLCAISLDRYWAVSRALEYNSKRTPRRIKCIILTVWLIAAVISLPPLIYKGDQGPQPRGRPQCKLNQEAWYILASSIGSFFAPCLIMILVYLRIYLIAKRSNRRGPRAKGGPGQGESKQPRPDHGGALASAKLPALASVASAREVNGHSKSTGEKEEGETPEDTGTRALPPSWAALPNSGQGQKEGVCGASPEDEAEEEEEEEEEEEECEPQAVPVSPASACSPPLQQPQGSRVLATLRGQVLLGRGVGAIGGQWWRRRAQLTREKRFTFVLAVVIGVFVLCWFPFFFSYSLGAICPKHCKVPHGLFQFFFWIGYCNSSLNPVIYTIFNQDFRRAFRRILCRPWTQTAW
Chain of Cannabinoid receptor 1 (Homo sapiens) (P21554 whole entry): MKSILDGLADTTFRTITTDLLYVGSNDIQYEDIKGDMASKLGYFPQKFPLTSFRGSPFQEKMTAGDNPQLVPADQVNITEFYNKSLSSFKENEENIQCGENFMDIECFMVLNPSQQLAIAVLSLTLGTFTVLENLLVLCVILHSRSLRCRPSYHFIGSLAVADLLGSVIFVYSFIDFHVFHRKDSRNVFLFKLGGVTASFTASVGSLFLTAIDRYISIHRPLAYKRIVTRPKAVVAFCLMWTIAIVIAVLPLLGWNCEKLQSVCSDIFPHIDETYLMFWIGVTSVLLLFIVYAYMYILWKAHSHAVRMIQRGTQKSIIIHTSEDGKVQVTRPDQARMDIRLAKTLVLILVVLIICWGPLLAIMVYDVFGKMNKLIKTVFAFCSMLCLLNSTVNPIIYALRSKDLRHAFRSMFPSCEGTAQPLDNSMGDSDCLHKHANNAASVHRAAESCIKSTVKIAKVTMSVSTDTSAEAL
Chain of Histamine H1 receptor (Homo sapiens) (P35367 whole entry): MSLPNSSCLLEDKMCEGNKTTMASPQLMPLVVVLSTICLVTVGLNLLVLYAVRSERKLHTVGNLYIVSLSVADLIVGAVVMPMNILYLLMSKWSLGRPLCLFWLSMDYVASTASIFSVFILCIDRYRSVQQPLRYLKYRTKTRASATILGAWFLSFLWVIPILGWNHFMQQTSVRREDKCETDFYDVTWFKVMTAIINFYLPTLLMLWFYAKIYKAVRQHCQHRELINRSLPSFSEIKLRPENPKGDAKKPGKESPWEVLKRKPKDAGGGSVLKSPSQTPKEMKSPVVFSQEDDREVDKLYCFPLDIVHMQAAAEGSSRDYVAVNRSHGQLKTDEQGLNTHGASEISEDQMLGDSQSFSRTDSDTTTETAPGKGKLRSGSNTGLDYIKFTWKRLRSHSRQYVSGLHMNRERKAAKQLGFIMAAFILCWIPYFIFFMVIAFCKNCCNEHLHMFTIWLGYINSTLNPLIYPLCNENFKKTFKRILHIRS

`CCn1c(=O)c(C)cn(Cc2nnc(-c3ccc(F)c(OC)c3F)s2)c1=O` was tested, and the inhibition [1] was 2.05%, the residual activity [2] was 100% and the inhibition [3] was 15.8%. It also gave a residual activity [4] of 92%, an inhibition [5] of -2.24% and a residual activity [6] of 103%. The inhibition [7] was 8.52%, the inhibition [8] was -0.06% and the residual activity [9] was 44%. For the same compound, the residual activity [10] was 87%, the inhibition [11] was 2.49% and the residual activity [12] was 86%. It also gave an inhibition [13] of 3.37%, a residual activity [14] of 88% and an inhibition [15] of -6.46%. The residual activity [16] was 94%, the residual activity [17] was 99% and the residual activity [18] was 94%. It also gave a residual activity [19] of 103%, a residual activity [20] of 107% and a residual activity [21] of 104%. For the same compound, the residual activity [22] was 88%, the inhibition [23] was 11% and the residual activity [24] was 104%. For the same compound, the residual activity [25] was 94%.

`CCn1c(=O)c(C)cn(Cc2nnc(-c3ccc(F)c(O)c3F)s2)c1=O` gave an inhibition [1] of 1.31%, a residual activity [2] of 84% and an inhibition [3] of 6.08%. The residual activity [4] was 88%, the inhibition [5] was 7.03% and the residual activity [6] was 93%. For the same compound, the inhibition [7] was 16%, the inhibition [8] was 9.87% and the residual activity [9] was 49%. The residual activity [10] was 113%, the inhibition [11] was 5.03% and the residual activity [12] was 82%. The inhibition [13] was 3.4%, the residual activity [14] was 107% and the inhibition [15] was 8.17%. For the same compound, the residual activity [16] was 95%, the residual activity [17] was 78% and the residual activity [18] was 115%. The residual activity [19] was 95%, the residual activity [20] was 109% and the residual activity [21] was 97%. The residual activity [22] was 96%, the inhibition [23] was 0.98% and the residual activity [24] was 101%. For the same compound, the residual activity [25] was 101%.
